In US7855325B2, “Use of nitric oxide modulators in Agrobacterium-mediated plant transformation” (Monsanto Technology LLC, priority 2003, dated 2010):

Legend:
corn immature embryos [1] = assay: Follow-up callus induction experiment, embryos on liquid MSW57 medium with L-NMMA or SNAP; type: cell-based; conditions: MSW57 plus 0.1 mM SNAP, 14-d in culture
Experimental: To follow up on this callus induction observation, a new experiment was set up where a typical embryo harvest was done from several ears and the embryos were distributed onto control medium MSW57, MSW57 plus 1.0 mM L-NMMA or 0.1 mM S-nitroso-N-acetylpenicillamine (SNAP, a NO donor compound). In this experiment the embryos were placed on a dark Millipore filter set on top of two pieces of felt.

corn immature embryos [2] = assay: Callus induction and cell proliferation from corn immature embryos on medium with NO modulators; type: cell-based; conditions: 0.01 mM SNAP, compared to other treatments and controls
Experimental: This example describes the use of nitric oxide modulators in Agrobacterium-mediated transformation of corn. Corn callus and embryos, with and without previous inoculation in Agrobacterium, were cultured on medium containing NO donors (0.1 mM SNP and 0.01 mM SNAP), a NO-synthase inhibitor (1 mM L-NMMA), and the enantiomer of the inhibitor as negative control (1 mM D-NMMA, which has no effect on NO-synthase). All chemicals were obtained from EMD Biosciences, Inc. (La Jolla, Calif.). Callus and embryos, with and without previous inoculation in Agrobacterium, cultured on MSW57 (Table 1) were used as additional controls. The increase in the percentage of explants expressing GFP recorded on media with NO donors from Day 3 to Day 6 might be due to compound degradation. […] Limiting nitric oxide (NO) production in immature embryos and callus could increase transient GFP expression.

SMILES: CC(=O)N[C@H](C(=O)O)C(C)(C)SN=O (racemic) [SNAP, S-nitroso-N-acetylpenicillamine]
- embryos with callus induction versus control (corn immature embryos [1]): more embryos with callus induction than the control
- cell proliferation of embryo-derived callus (corn immature embryos [2]): significantly higher
